Experimental data published in US11534410B2, “Amphotericin loaded PEGylated lipid nanoparticles and methods of use” (University of Mississippi, priority 2018, dated 2022).
Converted amounts (≈) assume the structure as drawn. Where two headings read alike, the source gives them in different places.

How the values were obtained:
[1] = Lipid screening: solubility/dispersibility of amphotericin B in lipids; format: physicochemical
Procedure: Lipid screening is a crucial step, in order to select the lipids with the highest drug solubility and/or dispersibility. Amphotericin B (1 mg) was added to the lipid at 75° C., upon stirring at 2000 rpm for 10 mins, and observed with naked eye as well as under the microscope for precipitation/aggregation. Amphotericin B has a relatively higher solubility at elevated temperature in Precirol™ ATO 5 (glyceryl palmitostearate) in comparison with the other lipids, such as Compritol® ATO 888 (glyceryl behenate), stearic acid, glyceryl mono stearate (GMS) and glyceryl di-stearate (Table 1). […] While screening liquid lipids, amphotericin B better dispersed/solubilized in castor oil (Table 1).

[2] = test system: AmB resistant Candida strain (ATCC 200955); experiment: Microdilution and fungicidal assay, AmB resistant strain; format: cell-based, Candida albicans; details: Day10
Procedure: Each formulation was tested at 5.0-0.01 μg/ml with 2-fold dilutions. […] B. & C. Antifungal activity on Day 10 post AmB formulation in WT and AmB resistant Candida strains, respectively. Each experiment was performed in triplicates.

[3] = cited from earlier work
[4] = test system: wild type (WT) Candida albicans (ATCC90028); experiment: Microdilution (CLSI) and recovery assay, antifungal/fungicidal activity; format: cell-based; details: for MFC: recovery assay
Procedure: FIG. 5: Antifungal activity of amphotericin B formulations. […] Each formulation was tested at 5.0-0.01 μg/ml with 2-fold dilutions. Color bar represents relative growth. A. Antifungal activity on Day 1 post AmB formulation in wild type (WT) Candida. B. & C. Antifungal activity on Day 10 post AmB formulation in WT and AmB resistant Candida strains, respectively. Each experiment was performed in triplicates.
In vitro fungicidal activity: A microdilution experiment was performed in wild type (WT) Candida albicans (ATCC90028) and Aspergillus fumigatus (ATCC 204305) as per Clinical & Laboratory Standards Institute (CLSI) protocols^37-39. […] Recovery assay was performed for fungicidal activity at both day 1 and day 10 post preparation.

[5] = test system: retinal pigmented epithelial cells (ATCC ARPE-19); format: cell-based
Procedure: In vitro cytotoxicity evaluation: The placebo (no Amphotericin B) formulations PEG-NLC and NLC alone were tested for cytotoxicity towards the retinal pigmented epithelial cells (ATCC ARPE-19) in a concentration range of 0.03%-1%. […] They were not cytotoxic to ARPE-19 cells up to a highest concentration of 30 μg/mL, indicating a high therapeutic index.

[6] = amphotericin B (1 mg) added to the solid lipid at 75° C., 2000 rpm for 10 mins

Castor Oil
Solubility/Dispersion (Liquid Lipid) [1]: +

Sesame Oil
Solubility/Dispersion (Liquid Lipid) [1]: −

C[C@@H]1[C@H](O)[C@@H](C)/C=C/C=C/C=C/C=C/C=C/C=C/C=C/[C@H](O[C@@H]2O[C@H](C)[C@@H](O)[C@H](N)[C@@H]2O)C[C@@H]2O[C@](O)(C[C@@H](O)C[C@@H](O)[C@H](O)CC[C@@H](O)C[C@@H](O)CC(=O)O[C@H]1C)C[C@H](O)[C@H]2C(=O)O [AmB, Amphotericin B]
MFC [2]: 2.5 µg/mL (≈ 2.71 µM) | MIC [2]: 2.5 µg/mL (≈ 2.71 µM) | log P [3]: 0.8 | solubility in water, methanol, and ethanol [3]: practically insoluble | MIC ([4]; Day1 post preparation): 0.62/0.62 μg/mL | MFC ([4]; Day1 post preparation): 1.25/1.25 μg/mL | MIC ([4]; Day10 post preparation): 0.62/0.62 μg/mL | MFC ([4]; Day10 post preparation): 1.25/1.25 μg/mL

benzalkonium chloride
IC50 (cytotoxicity) [5]: 3.9 µg/mL

CCCCCCCC/C=C\CCCCCCCC(=O)O [Oleic acid]
Solubility/Dispersion (Liquid Lipid) [1]: −

CCCCCCCCCCCCCCCCCC(=O)OCC(O)CO (stereo not shown) [GMS, glyceryl mono stearate]
Solubility/Dispersion (Solid Lipid) [1]: −

CCCCCCCCCCCCCCCC(=O)OCC(COC(=O)CCCCCCCCCCCCCCC)OC(=O)CCCCCCCCCCCCCCC [Dynasan 116, glyceryl tripalmitate]
Solubility/Dispersion (Solid Lipid) [1, 6]: −

Soy bean oil
Solubility/Dispersion (Liquid Lipid) [1]: −

CCCCCCCCCCCCCC(=O)OCC(COC(=O)CCCCCCCCCCCCC)OC(=O)CCCCCCCCCCCCC [Dynasan 114, glyceryl trimyristate]
Solubility/Dispersion (Solid Lipid) [1, 6]: −
